The source of these data is US20070088086A1, “Method of using synthetic L-Se-methylselenocysteine as a nutriceutical and a method of its synthesis” (PharmaSe, Incorporated, priority 1999, published 2007).

The subject of one data set is mammary tumors. The settings on record: 1 and 2 ppm in rats' diets; cited from earlier work.
In data set [1] the test system is pre-neoplastic and tumor cell lines. The settings on record: cited from earlier work.
The nature of data set [2]: Acute toxicity in a mouse (FIG. 3). The settings on record: in vivo. The protocol:
FIG. 3 is a graphic comparison showing the acute toxicity of L-Se-methylselenocysteine in a mouse versus the acute toxicity of selenomethionine in rats.
(§1) FIG. 1 illustrates a comparison between L-Se-methylselenocysteine and L-selenomethionine, and their effect on the growth of normal rabbit fibroblasts. Tests were performed at varying concentrations of L-Se-methylselenocysteine and L-selenomethionine over a three-day period. The amount of cellular growth, as measured by DNA synthesis, that could be stimulated by calf serum at the end of this period was assessed by the addition of tritiated thymidine.

Data set [3] can be described thus: In vitro lucigenin chemiluminescence (CL) assay of superoxide generation in the presence of GSH. The protocol:
Methylseleninic acid (CH3SeOOH) was a dissolved in distilled water. Using a Rannin micropipette, aliquots were added directly to 1.0 ml of a buffered cocktail solution. The buffered cocktail solution was comprised of lucigenin (20 μg/ml), reduced glutathione (GSH) (4 mg/ml), and either sodium borate (0.05M) or sodium phosphate (0.05M), all purchased from Sigma Chemical Co. Two different buffered cocktail solutions were employed: the cocktail containing sodium borate was used for experiments at pH 9.2, which is optimum for the generation, detection and quenching of selenium catalyzed superoxide; and the cocktail containing sodium phosphate was used for experiments at pH 7.4, which is reflective of physiological conditions. One ml of the cocktail solution was added to a 10×50 mm polypropylene tube for use in the chemiluminescence (CL) assay. Chemiluminescence, using lucigenin as the detector of superoxide, was counted in repetitive integrated 30 second increments over time using a Los Alamos Diagnostics (Model 535) chemiluminometer, to which was attached a LKB Model 2209 circulating water bath that held the tube at 36° C. All chemical test assays and controls were performed by the addition of methylseleninic acid directly to the luminometer test tube in the counting chamber. Superoxide dismutase, SOD, purchased from Sigma Chemical Co., was added to the test tube prior to the addition of the methylseleninic acid and used to quench the chemiluminescent reactions.
The complete chemiluminescence cocktail (containing buffer, lucigenin and GSH) produced very low, yet detectable amounts of background chemiluminescence at both a pH of 9.2 and 7.4. This was most likely due to the ambient spontaneous oxidation of GSH, but was not significant to the tests performed. […] Thus the chemiluminescence produced and quantitated in these assays can be attributable to the generation of superoxide. […] The chemiluminescence generated by selenoate catalysis may be used to quantitatively approximate the amount of catalytic selenium present.

Data set [4] concerns normal rabbit fibroblasts. Briefly: Growth of normal rabbit fibroblasts, DNA synthesis by tritiated thymidine (FIG. 1). The data set is classed as cell-based. The settings on record: three-day period, compared with selenomethionine. The procedure:
FIG. 1 is a graphic comparison between L-Se-methylselenocysteine and L-selenomethionine and their effect on the growth of normal rabbit fibroblasts.
as §1

A further data set concerns human cancer cells. Put plainly: Toxicity to cancer cells, same protocol as normal cells (FIG. 2). The data set is classed as cell-based. The settings on record: compared with selenomethionine. The protocol: FIG. 2 is a graphic comparison showing that L-Se-methylselenocysteine is more toxic to human cancer cells than L-selenomethionine.
as §1

Data set [5] is described as follows: Solubility of the obtained amino acid in solvents. The data set is classed as physicochemical. An excerpt:
It is contemplated that ion exchange chromatography may be used to purify the amino acid. It is also possible that, on a larger scale, L-Se-methylselenocysteine may be crystallized. […] Accordingly, ethanol may be one likely crystallization solvent.

The test system of a further data set is rats. The settings on record: acute toxicity, reported (Spallholz, 1994); cited from earlier work.
In the next data set the test system is colon carcinogenisis. The settings on record: dietary 1.0-2.0 ppm; cited from earlier work.
Data set [6] has as its system lung, cholorectal and prostate cancer. The settings on record: dietary supplement up to 200 μg/Se/day more than that found in foods; cited from earlier work.
The conditions of data set [7]: selenol or thiol group; cited from earlier work.
In a further data set the test system is cells in culture. The settings on record: cited from earlier work.

Molecules are shown by their SMILES.

As to `C[Se]C[C@H](N)C(=O)O` (racemic) [Se-methylselenocysteine], the “appearance of palpable mammary tumors” value in the data set on mammary tumors is given as “decreases the appearance of palpable mammary tumors”. Further, the “anticancer effects (cell morphology, cell number, DNA strand breaks)” value in [1] was “beneficial anticancer effects”.
`C[Se]C[C@H](N)C(=O)O` [L-Se-methylselenocysteine]: in [2], the LD50 is 8 mg/kg. Moreover, in data set [3] (pH not stated), the “superoxide generation / chemiluminescence in the in vitro CL assay” value is reported as “do not generate superoxide”. Moreover, the “toxicity to normal cells (growth, DNA synthesis)” value in [4] is on record as “less toxic to normal cells”. Moreover, the “toxicity to cancer cells” value with human cancer cells is on record as “more toxic to cancer cells”. In addition, the solubility entry in [5] (in ethanol) is “sparingly soluble”; in [5] (in methanol), “fairly soluble”; in data set [5] (in water) it was “soluble”.
As to `C[Se]CC[C@H](N)C(=O)O` [L-selenomethionine], the “superoxide generation / chemiluminescence in the in vitro CL assay” value in data set [3] (pH not stated) is “do not generate superoxide”. Further, in the data set with rats, the LD50 is given as 4.25 mg/kg. For the same compound, in the data set with colon carcinogenisis, the “effect on the promotional stages of rat colon carcinogenisis” value was “inhibitory effect”. For the same compound, the “cancer incidence in humans” value in [6] is “reduce the incidence of lung, cholorectal and prostate cancer”.
For `N[C@@H](CS)C(=O)O` [cysteine], the pKa in data set [7] is recorded as 8-9.
As for `C[Se](=O)O` [methylseleninic acid, Methylseleninic acid], the “lowest level at which chemiluminescence (superoxide generation) could be detected” value in [3] (FIG. 4, GSH reduction) is 0.56 nanomoles of selenium. For the same compound, the “quenching of chemiluminescence by SOD” value in data set [3] (pH 7.4, 100 units of SOD) is listed as “quenched most of the chemiluminescence activity”; in [3] (pH 9.2, 100 units of SOD added prior), “quenched an initial burst of chemiluminescence activity”. Besides, in data set [3] (pH 7.4, complete cocktail with GSH and lucigenin), the chemiluminescence entry was “produced chemiluminescence”. In addition, the “superoxide generation (chemiluminescence)” value in data set [3] (pH 9.2, complete cocktail with GSH and lucigenin) is on record as “generated superoxide”. For the same compound, the “chemiluminescence with lucigenin alone” value in [3] (without GSH, pH 9.2 and 7.4) is reported as “produced no additional chemiluminescence”. In addition, the “chemiluminescence with GSH alone” value in data set [3] (without lucigenin, pH 9.2 and 7.4) was “produced no additional chemiluminescence”.
On to `C[SeH]` [methylselenol], for which the “superoxide generation / chemiluminescence in the in vitro CL assay” value in [3] (pH not stated) was “very active redox compound producing superoxide”.
In the case of `CS` [methylthiol], in data set [3] (pH not stated), the “quenching of chemiluminescence by SOD” value is given as “SOD did not significantly quench the chemiluminescence” and the “superoxide generation / chemiluminescence in the in vitro CL assay” value was “only a fraction of the amount of chemiluminescence as compared to methylselenol”.
Regarding `O=[Se](O)O` [selenite], the induction of apoptosis result in the data set on cells in culture is “induces DNA ladders and apoptosis”.
For the compound `N[C@@H](C[SeH])C(=O)O` [selenocysteine], the pKa in data set [7] was 5.25.

Usually LD50 stands for the dose at which mortality reaches 50%. What is called pKa is the pH at which an ionisable group is half protonated.
